The data set can be described thus: recombinant UMI read abundance after kanamycin selection (control-corrected) (log10(CPM+1)); higher = more efficient recombination; extreme values may be limits of the assay; sequences stand for … in AGTGCAGAGAAAATCGGCCAGTTTTCTCTGCCTGCAGTCCGCATGCCGTGGGACCCCTTGGGTTCTAACCTGTTGCCTAGATTTATGCAGCGGACTGCCTTTCTCCCAAAGTGATAAACCGG…AGGTTGGTTTCACT; site = the 11-nt donor. Summed up: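 Pooled Escherichia coli screen of donor and donor-binding-loop pairs for the IS621 bridge recombinase. Each pair sits with a 12-nt UMI on a plasmid carrying a promoterless kanamycin gene. The library was co-electroporated with a target plasmid encoding a fixed target and T7-inducible recombinase, then plated with IPTG (0.07 mM) plus kanamycin, or unselected, each in two replicates. Recombinant UMIs were PCR-amplified across the donor–target junction and sequenced. Counts became CPM, averaged over replicates, scaled by control-derived factors and reported as log10(CPM+1).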
With “ATATCGCCATGGACCGGTTTTCCCGGTAATCCGTATTTGAT (site ATATCGCCTAT)”, the “recombinant UMI read abundance (log10)” value came out at 0.284. The same measure for “ATATCTGCATGGACCGGTTTTCCCGGTAATCCGTATTTGTA (site ATATCTGCTTA)”: 2; for “ATATTCACATGGACCGGTTTTCCCGGTAATCCGTATTTGTT (site ATATTCACTAA)”: 1.75. Consider “ATCAAGACATGGACCGGTTTTCCCGGTAATCCGTATTTGCA (site AGGAAGACTTG)”, for which the “recombinant UMI read abundance (log10)” value was determined as 0.783.

With “ATCAAGACATGGACCGGTTTTCCCGGTAATCCGTATTTGCA (site ATCAAGACTTG)”, the “recombinant UMI read abundance (log10)” value worked out at 2.31.

With “ATCAAGGCATGGACCGGTTTTCCCGGTAATCCGTATTTGTC (site ATCAAGGCTGA)”, the “recombinant UMI read abundance (log10)” value was determined as 1.53. “ATCAATACATGGACCGGTTTTCCCGGTAATCCGTATTTGCA (site ATCAATACTTG)”: the “recombinant UMI read abundance (log10)” value amounted to 1.44.

On to “ATCATTGCATGGACCGGTTTTCCCGGTAATCCGTATTTGGC (site ATCATTGCTGC)”, for which the “recombinant UMI read abundance (log10)” value turned out to be 2.13. In the case of “ATCCAAGCATGGACCGGTTTTCCCGGTAATCCGTATTTGAA (site ATCCAAGCTAT)”, the “recombinant UMI read abundance (log10)” value turned out to be 0.379.

For the sequence “ATCCAAGCATGGACCGGTTTTCCCGGTAATCCGTATTTGAA (site ATCCAAGCTCT)”, the “recombinant UMI read abundance (log10)” value came to 0.445. Turning to “ATCCAAGCATGGACCGGTTTTCCCGGTAATCCGTATTTGAA (site ATCCAAGCTGT)”, the “recombinant UMI read abundance (log10)” value was 0.751.

As for “ATCCAAGCATGGACCGGTTTTCCCGGTAATCCGTATTTGAA (site ATCCAAGCTTT)”, the “recombinant UMI read abundance (log10)” value worked out at 1.29. Turning to “ATCCAAGCATGGACCGGTTTTCCCGGTAATCCGTATTTGGG (site ATCCAAGCTCA)”, the “recombinant UMI read abundance (log10)” value was 0.0113. “ATCCAAGCATGGACCGGTTTTCCCGGTAATCCGTATTTGGG (site ATCCAAGCTCC)”: the “recombinant UMI read abundance (log10)” value is 0.365. Turning to “ATCCAAGCATGGACCGGTTTTCCCGGTAATCCGTATTTGGG (site ATCCAAGCTCG)”, the “recombinant UMI read abundance (log10)” value is 0.0298. Take “ATCCAAGCATGGACCGGTTTTCCCGGTAATCCGTATTTGGG (site ATCCAAGCTCT)”: the “recombinant UMI read abundance (log10)” value was 0.00791.

On to “ATCCAATCATGGACCGGTTTTCCCGGTAATCCGTATTTGAG (site ATCCAAACTCT)”, for which the “recombinant UMI read abundance (log10)” value is 0.00423. Consider “ATCCAATCATGGACCGGTTTTCCCGGTAATCCGTATTTGAG (site ATCCAACCTCT)”, for which the “recombinant UMI read abundance (log10)” value is 0.0188. For the sequence “ATCCAATCATGGACCGGTTTTCCCGGTAATCCGTATTTGAG (site ATCCAAGCTCT)”, the “recombinant UMI read abundance (log10)” value amounted to 0.0117.

For the sequence “ATCCAATCATGGACCGGTTTTCCCGGTAATCCGTATTTGAG (site ATCCAATCTCT)”, the “recombinant UMI read abundance (log10)” value turned out to be 1.04. With “ATCCAGGCATGGACCGGTTTTCCCGGTAATCCGTATTTGAG (site ATCCAAGCTCT)”, the “recombinant UMI read abundance (log10)” value is 0.547. Regarding “ATCCAGGCATGGACCGGTTTTCCCGGTAATCCGTATTTGAG (site ATCCACGCTCT)”, the “recombinant UMI read abundance (log10)” value is 0.013. For “ATCCAGGCATGGACCGGTTTTCCCGGTAATCCGTATTTGAG (site ATCCAGGCTCT)”, the “recombinant UMI read abundance (log10)” value is 0. The same measure for “ATCCAGGCATGGACCGGTTTTCCCGGTAATCCGTATTTGAG (site ATCCATGCTCT)”: 0.382; for “ATCCAGGCATGGACCGGTTTTCCCGGTAATCCGTATTTGCC (site ATCCAGGCTGG)”: 0; for “ATCCATACATGGACCGGTTTTCCCGGTAATCCGTATTTGAC (site ATCAATACTGT)”: 0. On to “ATCCATACATGGACCGGTTTTCCCGGTAATCCGTATTTGAC (site ATCCATACTGT)”, for which the “recombinant UMI read abundance (log10)” value was 1.77.

With “ATCCATACATGGACCGGTTTTCCCGGTAATCCGTATTTGAC (site ATCGATACTGT)”, the “recombinant UMI read abundance (log10)” value was determined as 0. As to “ATCCATACATGGACCGGTTTTCCCGGTAATCCGTATTTGAC (site ATCTATACTGT)”, the “recombinant UMI read abundance (log10)” value stood at 0. On to “ATCCCCTCATGGACCGGTTTTCCCGGTAATCCGTATTTGGA (site ATCCCCTCTTC)”, for which the “recombinant UMI read abundance (log10)” value was found to be 1.95. “ATCCCGGCATGGACCGGTTTTCCCGGTAATCCGTATTTGAG (site CGAAGCCCTAG)”: the “recombinant UMI read abundance (log10)” value was found to be 0.

On to “ATCCGACCATGGACCGGTTTTCCCGGTAATCCGTATTTGTC (site ATCCGACCTGA)”, for which the “recombinant UMI read abundance (log10)” value came to 0. Regarding “ATCCTTTCATGGACCGGTTTTCCCGGTAATCCGTATTTGAC (site AACCTTTCTGT)”, the “recombinant UMI read abundance (log10)” value was 0. On to “ATCCTTTCATGGACCGGTTTTCCCGGTAATCCGTATTTGAC (site ACCCTTTCTGT)”, for which the “recombinant UMI read abundance (log10)” value amounted to 0.

The record behind these values is the supplement of paper PMC11208160.
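Note: IS621 bridge recombinase in Escherichia coli cells against a fixed T5 target plasmid.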
